pIC50: −log10 of the molar value. Read-outs that look alike come from different tables or passages of the source.
Experiments:
Walker tumour cells = settings: in vivo or in vitro; cited from earlier work
other tumours = settings: cited from earlier work
EC.1.6.99.2 = settings: Walker cell enzyme; cited from earlier work
[1] = tested on: bacterial nitroreductase enzymes; settings: PCT/GB92/01947; cited from earlier work
[2] = product of CB 1954 reduction by Walker cell enzyme; cited from earlier work
V79 cells [3] = assay: Survival of V79 cells in the presence of the B. amyloliquifaciens nitroreductase; format: cell-based; settings: 2 h, 37° C
Experimental: The effect of SN23862 on the survival of V79 cells in the preence of the B. amyloliquifaciens nitroreductase. All treatments were for 2 hours at 37° C. and the cells were then plated out for their resulting colony forming ability. […] The initial cell density was 2×10^5 /mL.

MAWI Cells = assay: Survival of Mawi cells in the presence of the E. coli nitroreductase: A5B7 F(ab)2 conjugate; format: cell-based; settings: 2 h, 37° C
Experimental: (§1) The conjugate concentration was 81 μg/ml (euivalent to 5.2 μg/ml nitroreductase) and NADII was used as a co-factor. […] No attempt was made to remove unbound conjugate.

V79 cells [4] = assay: Survival of V79 cells in the presence of the E. coli nitroreductase: A5B7 F(ab)2 conjugate; format: cell-based; settings: 2 h, 37° C
Experimental: as §1

V79 cells [5] = assay: Survival of V79 cells in the presence of the E. coli nitroreductase; settings: hamster, 2 h
Experimental: (§3) The nitroreductase concentration was 2 μg/ml and NADH was used as a co-factor. The initial cell density was 2×10^5 /mL.

AA8 = assay: Growth inhibition (IC50), AA8 cells, aerobic; format: cell-based; settings: air, 18 h exposure
Experimental: (§2) Growth inhibition studies were performed as described in detail elsewhere (W.R. Wilson, R.F. Anderson and W.A Denny. J Med. Chem., 1989, 32, 23; G.J. Finlay, B.C. Baguley and W.R. Wilson. Anal Biochem., 1984, 139, 172.), using 200 viable AA8 or 300 viable UV4 cells plus 5000 lethally-irradiated AA8 feeder cells per well in 96-well tissue culture dishes. AA8 and UV4 cells were maintained in logarithmic-phase growth in […] tissue culture flasks with subculture twice weekly by trypsinization. The growth medium was antibiotic-free α-MEM with 10% v/v heat-inactivated ([…], 40 min) fetal calf serum. Doubling times were approximately 14h for AA8 and 15h for UV4 cells.

UV4 = assay: Growth inhibition (IC50), UV4 cells, aerobic; format: cell-based; settings: air, 18 h exposure
Experimental: as §2

AA8 and UV4 cell lines = assay: Ratio of IC50 values against AA8 and UV4 cell lines (HFair); format: cell-based; settings: 18 h exposure
Experimental: as §2
Ratio of IC50 values for a compound after exposure as detailed above against AA8 and UV4 cell lines (HF=IC50 (AA8)/IC50 (UV4)).

UV4 cells = assay: Clonogenic assay, UV4 cells (CT10), aerobic and hypoxic; format: cell-based
Description: The product (in μM-hr) of the drug concentration times the exposure time to reduce cell survival to 10% of control values in the clonogenic assay.
Ratio of CT10 values after exposure of UV4 cells as detailed above under either aerobic (air) or hypoxic (N2) conditions (=aerobic CT10 /hypoxic CT10).

UV4 cell line = assay: Ratio of IC50 values against UV4 cell line in presence and absence of E. coli nitroreductase enzyme NTR-2; format: cell-based; settings: air, ratio of IC50 in presence and absence of E. coli nitroreductase NTR-2, 1080 min
Experimental: as §2
Ratio of IC50 values for a compound after exposure as detailed above against the UV4 cell line in the presence and absence of the E. coli nitroreductase enzyme NTR-2.

E. coli nitroreductase = molecular target: T1, E. coli nitroreductase (Escherichia coli, UniProt P38489); assay: Drug reduction by the E. coli nitroreductase; format: biochemical; settings: 120 min
T1 sequence (P38489 1-217): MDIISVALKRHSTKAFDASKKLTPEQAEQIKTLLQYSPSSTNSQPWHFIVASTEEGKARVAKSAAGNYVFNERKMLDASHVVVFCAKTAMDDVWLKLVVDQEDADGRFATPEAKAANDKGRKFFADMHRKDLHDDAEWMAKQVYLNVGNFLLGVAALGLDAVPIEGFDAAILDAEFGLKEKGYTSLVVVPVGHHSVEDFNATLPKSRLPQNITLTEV

[6] = molecular target: T2, B. amyloliquifaciens nitroreductase (Bacillus amyloliquefaciens, UniProt Q8VSR5); assay: Drug reduction by the B. amyloliquifaciens nitroreductase; format: biochemical; settings: 120 min
T2 sequence (Q8VSR5 1-174): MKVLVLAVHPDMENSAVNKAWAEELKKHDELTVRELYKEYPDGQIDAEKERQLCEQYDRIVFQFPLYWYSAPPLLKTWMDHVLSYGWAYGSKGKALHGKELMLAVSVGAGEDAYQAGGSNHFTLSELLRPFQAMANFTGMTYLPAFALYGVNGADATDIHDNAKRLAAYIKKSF
Experimental: The nitroreductase concentration was 7.45 μg/ml and NADII was ised as a co-factor.

[7] = molecular target: T3, E. coli nitroreductase: A5B7 F(ab)2 conjugate (Escherichia coli, UniProt P38489); assay: Drug reduction by the E. coli nitroreductase: A5B7 F(ab)2 conjugate; format: biochemical; settings: 120 min
T3 construct: A5B7 F(ab)2 antibody fragment (conjugate)
T3 sequence (P38489 1-217): T1 sequence (P38489 1-217)
Experimental: as §1

AA8 cells = assay: Radiosensitisation of hypoxic AA8 cells, gamma irradiation; format: cell-based
Experimental: The radiosensitising efficiency of compound 1 has been assessed in stirred suspensions of AA8 cells under hypoxie conditions using gamma irradiation (cobalt 60) at a dose rate of 2.2 Gy/min at 37° C. Drug and cells were mixed under hypoxic conditions 30 min before irradiation.

[8] = tested on: bacterial nitroreductase enzymes; assay: Reductive activation by bacterial nitroreductase enzymes; format: biochemical, Escherichia coli and Bacillus amyloliquifaciens; settings: Examples 1 to 3
V79 cells [9] = settings: 2 h, 37° C
Experimental: as §3

[10] = +CG (81 μg/ml) + SN23862 + 500 μM NADH

## NC(=O)c1cc(N2CC2)c([N+](=O)[O-])cc1[N+](=O)[O-] [CB 1954, 5-(aziridin-1-yl)-2,4-dinitrobenzaride]
Walker tumour cells
  activity against the Walker tumour cells: considerable activity
Other tumours
  activity against other tumours: virtually inactive
EC.1.6.99.2
  reduction of the 4-nitro group to the corresponding hydroxylamine: ability to reduce the 4-nitro group of CB 1954
[1]
  conversion into an active anti-tumour agent by bacterial nitroreductases: capable of converting CB 1954 into an active anti-tumour agents

## NC(=O)c1cc(N2CC2)c(NO)cc1[N+](=O)[O-] [5-(aziridin-1-yl)-2-nitro-4-hydroxylamino-benzamide]
[2]
  anti-tumour activity: active anti-tumour agent

## NC(=O)C1=CN([C@@H]2O[C@H](COP(=O)(O)OP(=O)(O)OC[C@H]3O[C@@H](n4cnc5c(N)ncnc54)[C@H](O)[C@@H]3O)[C@@H](O)[C@H]2O)C=CC1 [NADH, reference compound]
V79 cells [3]; +500 μM NADH alone
  % SURVIVAL: 120%
MAWI Cells; +500 μM NADH alone
  % SURVIVAL MAWI Cells: 104.6%
V79 cells [4]; +500 μM NADH alone
  % SURVIVAL V79 Cells: 94.6%
V79 cells [5]
  % SURVIVAL: 100%

## NC(=O)c1cc(N(CCCl)CCCl)c([N+](=O)[O-])cc1[N+](=O)[O-] [Compound 1, 5-[N,N-bis(2-chloroethyl)amino]-2,4-diritrobenzamide]
AA8
  pIC50: 3.33
UV4
  pIC50: 3.96
AA8 and UV4 cell lines
  HF (air) = IC50 (AA8)/IC50 (UV4): 6.8
UV4 cells; UV4 cells, aerobic CT10/hypoxic CT10
  CT10 ratio (air/N2): 58
UV4 cells; air, concentration x time to reduce UV4 cell survival to 10% of control
  CT10 (UV4): 2925 μM-h
UV4 cells; conclusion in words
  hypoxia-selective cytotoxicity: hypoxia-selective cytotoxin
UV4 cell line
  HF (NR-2): 73.5
E. coli nitroreductase; +50 μM SN23862
  % DRUG REDUCTION: < 1.0%
E. coli nitroreductase; +NADH + SN23862
  % DRUG REDUCTION: < 1.0%
E. coli nitroreductase; +NR + 50 μM SN23862
  % DRUG REDUCTION: < 1.0%
E. coli nitroreductase; +NR + SN23862 + 500 μM NADH
  % DRUG REDUCTION: 95%
V79 cells [3]; +50 μM SN23862
  % SURVIVAL: 110%
V79 cells [3]; +BA (7.45 μg/ml) + 50 μM SN23862
  % SURVIVAL: 110%
V79 cells [3]; +BA (7.45 μg/ml) + SN23862 + 500 μM NADH
  % SURVIVAL: 6.0%
V79 cells [3]; +NADH + SN23862
  % SURVIVAL: 115%
[6]; +50 μM SN23862
  % DRUG REDUCTION: < 1.0%
[6]; +BA + 50 μM SN23862
  % DRUG REDUCTION: < 1.0%
[6]; +BA + SN23862 + 500 μM NADH
  % DRUG REDUCTION: > 95%
[6]; +NADH + SN23862
  % DRUG REDUCTION: < 1.0%
MAWI Cells; +50 μM SN23862
  % SURVIVAL MAWI Cells: 90.9%
MAWI Cells; +CG (81 μg/ml) + 50 μM SN23862
  % SURVIVAL MAWI Cells: 94.6%
MAWI Cells; [10]
  % SURVIVAL MAWI Cells: 0.014%
MAWI Cells; +NADH + SN23862
  % SURVIVAL MAWI Cells: 93.1%
V79 cells [4]; +50 μM SN23862
  % SURVIVAL V79 Cells: 94.3%
V79 cells [4]; +CG (81 μg/ml) + 50 μM SN23862
  % SURVIVAL V79 Cells: 73.5%
V79 cells [4]; [10]
  % SURVIVAL V79 Cells: 0.003%
V79 cells [4]; +NADH + SN23862
  % SURVIVAL V79 Cells: 80.4%
[7]; +50 μM SN23862
  % DRUG REDUCTION: < 1.0%
[7]; +CG + 50 μM SN23862
  % DRUG REDUCTION: < 1.0%
[7]; +CG + SN23862 + 500 μM NADH
  % DRUG REDUCTION: > 99%
[7]; +NADH + SN23862
  % DRUG REDUCTION: < 1.0%
AA8 cells; at C1.6, hypoxic AA8 cells, FIG. 1
  drug toxicity at this extent of sensitisation: absence of drug toxicity
AA8 cells; hypoxic AA8 cells, FIG. 1
  Radiosensitisation of hypoxic cells: Radiosensitisation of hypoxic cells was observed
AA8 cells; hypoxic, 10% survival, cobalt 60, 2.2 Gy/min, 37° C, drug 30 min before irradiation
  C1.6 (concentration for an enhancement ratio of 1.6): approximately 100 μM
[8]
  reductive activation by bacterial nitroreductase enzymes: reductively activated by bacterial nitroreductase enzymes
V79 cells [9]; +50 μM SN23862
  % SURVIVAL: 100%
V79 cells [9]; +NADH + SN23862
  % SURVIVAL: 100%
V79 cells [9]; +NR (2 μg/ml) + 50 μM SN23862
  % SURVIVAL: 99%
V79 cells [9]; +NR (2 μg/ml) + SN23862 + 500 μM NADH
  % SURVIVAL: 0.007%

From patent publication US5750782A, “Nitroaniline derivatives and their use as anti-tumour agents” (priority 1996, dated 1998)
